Assays:
b.End3 cells [1] = assay: Internalization of CF by the cells in vitro, FACS; assay type: cell-based, mouse; details: equivalent to 0.5 μg/mL CF
Description: b.End3 immortalized mouse brain capillary endothelium cells were kindly provided by Prof Philip Lazarovici (Institute for Drug Research, School of Pharmacy, The Hebrew University of Jerusalem, Israel). The b.End3 cells were cultured in DMEM medium supplemented with 10% fetal bovine serum, 2 mM L-Glutamine, 100 IU/mL penicillin and 100 μg/mL streptomycin (Biological Industries Ltd., Beit Haemek, Israel). The cells were maintained in an incubator at 37° C. in a humidified atmosphere with 5% CO2.
All the images were acquired using the same imaging settings and were not corrected or modified.
The inventors investigated whether this trend is still apparent in the interaction of magnetic and non-magnetic bolavesicles with brain capillary endothelial cells. To this end, the inventors used murine b.End3 cells, which are one of the most extensively used cell lines for brain uptake and permeability studies^25. […] Previously, the inventors extensively used ^b.End3 cells to analyze uptake and intracellular fate of bolavesicles encapsulating model proteins and marker compounds^8.

b.End3 cells [2] = assay: Internalization of CF by the cells in vitro, confocal fluorescence microscopy; assay type: cell-based, mouse; details: 5 h at 37° C.; FIG. 4
Description: b.End3 cells were grown on 24-well plates or on coverslips (for FACS and fluorescence microscopy analysis, respectively). The medium was replaced with culture medium without serum and CF solution, or tested bolavesicles (equivalent to 0.5 μg/mL CF), or equivalent volume of the medium were added to the cells and incubated for 5 hr at 4° C. or at 37° C. At the end of the incubation, cells were extensively washed with complete medium and with PBS, and were either detached from the plates using trypsin-EDTA solution (Biological Industries Ltd., Beit Haemek, Israel) and analyzed by FACS (FACSCalibur Flow Cytometer, BD Biosciences, USA), or fixed with 2.5% formaldehyde in PBS, washed twice with PBS, mounted on slides using Mowiol-based mounting solution and analyzed using a FV1000-IX81 confocal microscope (Olympus, Tokyo, Japan) equipped with 60× objective. All the images were acquired using the same imaging settings and were not corrected or modified.

## carboxyfluorescein [CF]
b.End3 cells [1]; 5 hr at 4° C.
  Internalization by b.End3 cells (FACS): not able to internalize
b.End3 cells [1]; 5 hr at 37° C.
  Internalization by b.End3 cells (FACS): not able to internalize
b.End3 cells [2]
  Endocytosis of CF by b.End3 cells (confocal microscopy): endocytosed by the bEnd.3 cells only when encapsulated within the bolavesicles
